Source: ChEMBL document CHEMBL1147100, “Metronidazole plus rifampin sterilizes long-term dormant Mycobacterium tuberculosis” (Antimicrob Agents Chemother, 2007)
Calls of active or inactive are those of the source. The rule behind the calls is not given here.

Key:
Format in all cases: functional, organism-based
[1] = tested on: Mycobacterium tuberculosis; experiment: Bactericidal activity against 12-day old non-replicating Mycobacterium tuberculosis H37Rv in anaerobic condition at 8 ug/ml after 1 day by Wayne dormancy culture model
[2] = tested on: Mycobacterium tuberculosis; experiment: Bactericidal activity against 12-day old non-replicating Mycobacterium tuberculosis H37Rv in anaerobic condition at 8 ug/ml after 4 days by Wayne dormancy culture model
[3] = tested on: Mycobacterium tuberculosis; experiment: Bactericidal activity against 5-day old actively replicating Mycobacterium tuberculosis H37Rv in aerobic condition at 8 ug/ml by Wayne dormancy culture model
[4] = tested on: Mycobacterium tuberculosis; experiment: Bactericidal activity against 26-day old non-replicating Mycobacterium tuberculosis H37Rv in anaerobic condition at 8 ug/ml after 11 days by Wayne dormancy culture model
[5] = tested on: Mycobacterium tuberculosis; experiment: Bactericidal activity against 12-day old non-replicating Mycobacterium tuberculosis H37Rv in anaerobic condition at 8 ug/ml after 11 days by Wayne dormancy culture model
[6] = tested on: Mycobacterium tuberculosis; experiment: Bactericidal activity against 19-day old non-replicating Mycobacterium tuberculosis H37Rv in anaerobic condition at 8 ug/ml after 1 day by Wayne dormancy culture model
[7] = tested on: Mycobacterium tuberculosis; experiment: Bactericidal activity against 19-day old non-replicating Mycobacterium tuberculosis H37Rv in anaerobic condition at 8 ug/ml after 4 days by Wayne dormancy culture model
[8] = tested on: Mycobacterium tuberculosis; experiment: Bactericidal activity against 19-day old non-replicating Mycobacterium tuberculosis H37Rv in anaerobic condition at 8 ug/ml after 11 days by Wayne dormancy culture model
[9] = tested on: Mycobacterium tuberculosis; experiment: Bactericidal activity against 26-day old non-replicating Mycobacterium tuberculosis H37Rv in anaerobic condition at 8 ug/ml after 1 day by Wayne dormancy culture model
[10] = tested on: Mycobacterium tuberculosis; experiment: Bactericidal activity against 26-day old non-replicating Mycobacterium tuberculosis H37Rv in anaerobic condition at 8 ug/ml after 4 days by Wayne dormancy culture model
[11] = tested on: Mycobacterium tuberculosis; experiment: Bactericidal activity against 5-day old actively replicating Mycobacterium tuberculosis H37Rv in aerobic condition at 1 ug/ml after 1 day by Wayne dormancy culture model
[12] = tested on: Mycobacterium tuberculosis; experiment: Bactericidal activity against 5-day old actively replicating Mycobacterium tuberculosis H37Rv in aerobic condition at 1 ug/ml after 4 days by Wayne dormancy culture model
[13] = tested on: Mycobacterium tuberculosis; experiment: Bactericidal activity against 5-day old actively replicating Mycobacterium tuberculosis H37Rv in aerobic condition at 1 ug/ml after 11 days by Wayne dormancy culture model
[14] = tested on: Mycobacterium tuberculosis; experiment: Bactericidal activity against 19-day old non-replicating Mycobacterium tuberculosis H37Rv in anaerobic condition at 1 ug/ml after 1 day by Wayne dormancy culture model
[15] = tested on: Mycobacterium tuberculosis; experiment: Bactericidal activity against 19-day old non-replicating Mycobacterium tuberculosis H37Rv in anaerobic condition at 1 ug/ml after 4 days by Wayne dormancy culture model
[16] = tested on: Mycobacterium tuberculosis; experiment: Bactericidal activity against 19-day old non-replicating Mycobacterium tuberculosis H37Rv in anaerobic condition at 1 ug/ml after 11 days by Wayne dormancy culture model
[17] = tested on: Mycobacterium tuberculosis; experiment: Bactericidal activity against 26-day old non-replicating Mycobacterium tuberculosis H37Rv at 1 ug/ml after 1 day by Wayne in anaerobic condition dormancy culture model
[18] = tested on: Mycobacterium tuberculosis; experiment: Bactericidal activity against 26-day old non-replicating Mycobacterium tuberculosis H37Rv in anaerobic condition at 1 ug/ml after 4 days by Wayne dormancy culture model
[19] = tested on: Mycobacterium tuberculosis; experiment: Bactericidal activity against 26-day old non-replicating Mycobacterium tuberculosis H37Rv in anaerobic condition at 1 ug/ml after 11 days by Wayne dormancy culture model
[20] = tested on: Mycobacterium tuberculosis; experiment: Bactericidal activity against 12-day old non-replicating Mycobacterium tuberculosis H37Rv in anaerobic condition at 1 ug/ml after 1 day by Wayne dormancy culture model
[21] = tested on: Mycobacterium tuberculosis; experiment: Bactericidal activity against 12-day old non-replicating Mycobacterium tuberculosis H37Rv in anaerobic condition at 1 ug/ml after 4 days by Wayne dormancy culture model
[22] = tested on: Mycobacterium tuberculosis; experiment: Bactericidal activity against 12-day old non-replicating Mycobacterium tuberculosis H37Rv in anaerobic condition at 1 ug/ml after 11 days by Wayne dormancy culture model

## Cc1ncc([N+](=O)[O-])n1CCO
[1]
  Activity: Active
[2]
  Activity: Active
[3]
  Activity: inactive
[4]
  Activity: Active
[5]
  Activity: Active
[6]
  Activity: Active
[7]
  Activity: Active
[8]
  Activity: Active
[9]
  Activity: Active
[10]
  Activity: Active

## CO[C@H]1/C=C/O[C@@]2(C)Oc3c(C)c(O)c4c(O)c(c(/C=N/N5CCN(C)CC5)c(O)c4c3C2=O)NC(=O)/C(C)=C\C=C\[C@H](C)[C@H](O)[C@@H](C)[C@@H](O)[C@@H](C)[C@H](OC(C)=O)[C@@H]1C
[11]
  Activity: Active
[12]
  Activity: Active
[13]
  Activity: Active
[14]
  Activity: Active
[15]
  Activity: Active
[16]
  Activity: Active
[17]
  Activity: Active
[18]
  Activity: Active
[19]
  Activity: Active
[20]
  Activity: Active
[21]
  Activity: Active
[22]
  Activity: Active
